The source of these data is PMC6747015, “Structure–function study of a novel inhibitor of the casein kinase 1 family in Arabidopsis thaliana” (Plant Direct, 2019).

One assay addresses T1, CKL6 (AT4G28540) (Arabidopsis thaliana, UniProt Q8LPJ1).
T1 construct: from tissue; host or cells: Arabidopsis seedlings, two weeks old
In words: AMI‐329 bead binding with AMI‐331 competitor, CKL6. Here is the method: (§1) Screening for proteins bound to AMI‐329 beads was done by a method similar to what has previously been described (Uehara et al., 2019). Briefly, two‐week‐old seedlings grown under LD conditions were harvested at time points ZT2, ZT6, ZT9, and ZT17, and stored at −80°C. Proteins from the frozen plant samples were incubated with 0, 5, or 50 µM of AMI‐331 at 4°C for 30 min with rotary mixing. Two technical replicates were used for each experiment. PBS‐washed AMI‐329 beads were added to the protein samples and gently rotated at 4°C for 1 hr. AMI‐329 bead resins were washed with bead buffer (Uehara et al., 2019) six times. The washed resins were suspended in SDS sample buffer and boiled for 8 min. Protein samples were in‐gel‐digested as previously described (Uehara et al., 2019). Peptides were analyzed with a Q Exactive hybrid quadrupole‐orbitrap mass spectrometer (Thermo Fisher Scientific), as described previously (Uehara et al., 2019). […]
(§2) However, another possible mechanism for the strong AMI‐331 biological activity in vivo is that it targets proteins other than the CK1 family for period lengthening. […] It is noteworthy that kinase AT4G08800 is very similar to the CKL family, but the ATP‐binding pocket of mammalian CK1 as determined by its crystal structure (Shinohara et al., 2017) was absent from AT4G08800, as shown in an Araport 11 model (https://www.araport.org). […]

The next assay concerns the target T2, Reductase C (AT2G41680) (Arabidopsis thaliana, UniProt O22229).
T2 construct: Proteins from the frozen plant samples were incubated with 0, 5, or 50 µM of AMI‐331; from tissue; host or cells: two-week-old Arabidopsis seedlings (protein lysate)
In words: AMI‐329 bead binding with AMI‐331 competitor, reductase C. The procedure: as §1, §2

Another assay has as its target T3, CKL7 (AT5G44100) (Arabidopsis thaliana, UniProt Q9FFH8).
T3 construct: from tissue; host or cells: Arabidopsis seedlings, two weeks old
As to the kind of experiment: AMI‐329 bead binding with AMI‐331 competitor, CKL7. Here is the method: as §1, §2

The next assay has as its target T4, CKL4 (AT4G28860) (Arabidopsis thaliana, UniProt Q8LPI7).
T4 construct: from tissue; host or cells: Arabidopsis seedlings, two weeks old
In words: AMI‐329 bead binding with AMI‐331 competitor, CKL4. Here is the method:
as §1, §2

A further assay deals with T5, CKL13 (AT1G04440) (Arabidopsis thaliana, UniProt Q5XF24).
T5 construct: from tissue; host or cells: Arabidopsis seedlings, two weeks old
In words: AMI‐329 bead binding with AMI‐331 competitor, CKL13. The procedure:
as §1, §2

The target of another assay is T6, Kinase AT4G34500 (Arabidopsis thaliana, UniProt Q6NKZ9).
T6 construct: from tissue; host or cells: Arabidopsis seedlings, two weeks old
In words: AMI‐329 bead binding with AMI‐331 competitor, kinase AT4G34500. The procedure: as §1, §2

A further assay addresses T7, CKL1 (AT4G26100) (Arabidopsis thaliana, UniProt P42158).
T7 construct: from tissue; host or cells: Arabidopsis seedlings, two weeks old
In words: AMI‐329 bead binding with AMI‐331 competitor, CKL1. Here is the method: as §1, §2

The next assay deals with MPK family. As to the kind of experiment: AMI‐329 bead binding with AMI‐331 competitor, MPK family. More on the design: species or system Arabidopsis thaliana. The procedure: Screening for proteins bound to AMI‐329 beads was done by a method similar to what has previously been described (Uehara et al., 2019). Briefly, two‐week‐old seedlings grown under LD conditions were harvested at time points ZT2, ZT6, ZT9, and ZT17, and stored at −80°C. Proteins from the frozen plant samples were incubated with 0, 5, or 50 µM of AMI‐331 at 4°C for 30 min with rotary mixing. Two technical replicates were used for each experiment. PBS‐washed AMI‐329 beads were added to the protein samples and gently rotated at 4°C for 1 hr. AMI‐329 bead resins were washed with bead buffer (Uehara et al., 2019) six times. The washed resins were suspended in SDS sample buffer and boiled for 8 min. Protein samples were in‐gel‐digested as previously described (Uehara et al., 2019). Peptides were analyzed with a Q Exactive hybrid quadrupole‐orbitrap mass spectrometer (Thermo Fisher Scientific), as described previously (Uehara et al., 2019). MS/MS spectra were interpreted, and peak lists were generated using Proteome Discoverer 2.0.0.802 (Thermo Fisher Scientific). Searches were performed using SEQUEST (Thermo Fisher Scientific) against the Arabidopsis thaliana (TAIR TaxID = 3,702) peptide sequence database. […]
To examine other potential targets of AMI‐331, we analyzed the spectra for PHA767491 target proteins (Uehara et al., 2019). […]

Another assay has as its target T8, CKL12 (AT5G57015) (Arabidopsis thaliana, UniProt Q8VYK9).
T8 construct: from tissue; host or cells: Arabidopsis seedlings, two weeks old
As to the kind of experiment: AMI‐329 bead binding with AMI‐331 competitor, CKL12. Here is the method: as §1, §2

T1 sequence (Q8LPJ1 whole entry): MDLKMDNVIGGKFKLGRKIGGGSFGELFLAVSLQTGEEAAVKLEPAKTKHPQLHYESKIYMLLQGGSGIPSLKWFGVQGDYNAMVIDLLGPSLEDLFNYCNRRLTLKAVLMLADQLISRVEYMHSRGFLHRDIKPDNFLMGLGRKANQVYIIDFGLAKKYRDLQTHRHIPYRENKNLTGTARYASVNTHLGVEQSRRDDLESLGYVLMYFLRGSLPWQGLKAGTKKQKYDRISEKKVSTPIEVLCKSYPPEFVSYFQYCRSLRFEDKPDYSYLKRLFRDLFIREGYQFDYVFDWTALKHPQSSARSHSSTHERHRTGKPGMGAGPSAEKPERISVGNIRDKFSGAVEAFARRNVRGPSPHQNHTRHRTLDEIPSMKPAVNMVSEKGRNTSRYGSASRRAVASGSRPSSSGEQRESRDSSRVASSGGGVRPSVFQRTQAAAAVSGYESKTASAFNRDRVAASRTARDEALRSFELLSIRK
T2 sequence (O22229 68-529): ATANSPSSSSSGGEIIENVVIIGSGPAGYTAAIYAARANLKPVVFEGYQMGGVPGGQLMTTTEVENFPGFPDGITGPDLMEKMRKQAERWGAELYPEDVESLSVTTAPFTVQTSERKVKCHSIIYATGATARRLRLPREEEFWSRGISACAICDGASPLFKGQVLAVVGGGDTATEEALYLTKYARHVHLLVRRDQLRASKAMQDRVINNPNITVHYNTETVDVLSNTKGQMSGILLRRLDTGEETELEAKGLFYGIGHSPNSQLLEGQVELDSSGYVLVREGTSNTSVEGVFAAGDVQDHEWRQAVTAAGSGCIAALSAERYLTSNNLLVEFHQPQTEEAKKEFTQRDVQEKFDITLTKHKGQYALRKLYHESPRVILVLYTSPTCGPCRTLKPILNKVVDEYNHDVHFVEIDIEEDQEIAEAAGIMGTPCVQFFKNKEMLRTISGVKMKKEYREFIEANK
T7 sequence (P42158 whole entry): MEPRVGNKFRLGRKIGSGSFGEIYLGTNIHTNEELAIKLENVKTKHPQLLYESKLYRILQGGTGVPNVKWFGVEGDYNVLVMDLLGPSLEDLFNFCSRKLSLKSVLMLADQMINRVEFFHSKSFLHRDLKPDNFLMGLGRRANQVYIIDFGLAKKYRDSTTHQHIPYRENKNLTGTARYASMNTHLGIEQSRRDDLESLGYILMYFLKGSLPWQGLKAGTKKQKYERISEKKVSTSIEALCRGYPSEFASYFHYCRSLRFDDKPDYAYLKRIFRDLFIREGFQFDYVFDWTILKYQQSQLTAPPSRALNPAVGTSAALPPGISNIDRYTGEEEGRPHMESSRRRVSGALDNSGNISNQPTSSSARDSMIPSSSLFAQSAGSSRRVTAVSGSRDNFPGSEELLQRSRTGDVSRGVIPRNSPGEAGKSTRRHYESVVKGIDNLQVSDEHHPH
T3 sequence (Q9FFH8 whole entry): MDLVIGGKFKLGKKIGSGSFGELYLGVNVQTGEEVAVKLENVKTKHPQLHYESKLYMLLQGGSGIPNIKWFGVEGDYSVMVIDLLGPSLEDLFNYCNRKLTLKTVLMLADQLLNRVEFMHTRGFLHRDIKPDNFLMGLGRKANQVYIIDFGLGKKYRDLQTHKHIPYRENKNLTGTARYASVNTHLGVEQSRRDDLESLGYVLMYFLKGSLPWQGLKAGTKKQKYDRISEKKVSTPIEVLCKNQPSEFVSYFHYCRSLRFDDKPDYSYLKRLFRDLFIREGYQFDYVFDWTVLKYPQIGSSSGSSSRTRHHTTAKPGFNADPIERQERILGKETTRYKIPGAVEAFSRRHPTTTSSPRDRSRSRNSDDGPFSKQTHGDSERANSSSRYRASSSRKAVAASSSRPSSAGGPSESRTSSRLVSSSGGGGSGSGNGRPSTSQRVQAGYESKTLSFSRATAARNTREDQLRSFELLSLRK
T6 sequence (Q6NKZ9 whole entry): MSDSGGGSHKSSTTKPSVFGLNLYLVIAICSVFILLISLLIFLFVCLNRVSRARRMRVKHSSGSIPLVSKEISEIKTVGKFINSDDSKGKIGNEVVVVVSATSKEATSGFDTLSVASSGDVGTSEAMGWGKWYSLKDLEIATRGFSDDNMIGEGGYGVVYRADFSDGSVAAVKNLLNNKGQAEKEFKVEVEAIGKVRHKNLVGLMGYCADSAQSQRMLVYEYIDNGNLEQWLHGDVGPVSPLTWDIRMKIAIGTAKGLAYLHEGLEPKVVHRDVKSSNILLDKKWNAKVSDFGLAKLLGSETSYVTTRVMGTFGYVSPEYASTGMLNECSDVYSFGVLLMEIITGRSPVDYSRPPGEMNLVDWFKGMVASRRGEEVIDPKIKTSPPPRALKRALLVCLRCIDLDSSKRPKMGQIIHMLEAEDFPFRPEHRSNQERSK
T5 sequence (Q5XF24 whole entry): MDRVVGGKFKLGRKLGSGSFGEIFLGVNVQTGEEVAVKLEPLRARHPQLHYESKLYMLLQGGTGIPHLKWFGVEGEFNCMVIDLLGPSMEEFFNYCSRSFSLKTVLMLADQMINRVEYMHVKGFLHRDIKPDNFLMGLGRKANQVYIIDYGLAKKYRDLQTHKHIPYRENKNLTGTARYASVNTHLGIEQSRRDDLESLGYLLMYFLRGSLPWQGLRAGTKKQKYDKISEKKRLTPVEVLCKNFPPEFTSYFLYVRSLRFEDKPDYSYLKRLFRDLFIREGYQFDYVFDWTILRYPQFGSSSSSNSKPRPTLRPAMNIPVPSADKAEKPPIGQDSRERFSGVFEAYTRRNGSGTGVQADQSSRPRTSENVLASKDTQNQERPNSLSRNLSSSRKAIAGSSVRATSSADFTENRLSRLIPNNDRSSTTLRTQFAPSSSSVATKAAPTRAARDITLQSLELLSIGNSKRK
T8 sequence (Q8VYK9 whole entry): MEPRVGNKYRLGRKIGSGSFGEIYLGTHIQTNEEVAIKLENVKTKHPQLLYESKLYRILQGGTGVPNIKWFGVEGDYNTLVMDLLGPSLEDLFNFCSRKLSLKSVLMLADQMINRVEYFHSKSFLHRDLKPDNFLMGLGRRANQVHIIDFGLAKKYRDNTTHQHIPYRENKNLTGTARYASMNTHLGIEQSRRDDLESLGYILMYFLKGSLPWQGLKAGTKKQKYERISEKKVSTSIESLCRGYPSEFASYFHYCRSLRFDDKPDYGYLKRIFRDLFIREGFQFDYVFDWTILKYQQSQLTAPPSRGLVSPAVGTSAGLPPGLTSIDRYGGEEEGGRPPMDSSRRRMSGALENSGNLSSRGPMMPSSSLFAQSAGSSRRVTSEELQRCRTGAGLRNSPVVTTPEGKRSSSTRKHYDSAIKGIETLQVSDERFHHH
T4 sequence (Q8LPI7 whole entry): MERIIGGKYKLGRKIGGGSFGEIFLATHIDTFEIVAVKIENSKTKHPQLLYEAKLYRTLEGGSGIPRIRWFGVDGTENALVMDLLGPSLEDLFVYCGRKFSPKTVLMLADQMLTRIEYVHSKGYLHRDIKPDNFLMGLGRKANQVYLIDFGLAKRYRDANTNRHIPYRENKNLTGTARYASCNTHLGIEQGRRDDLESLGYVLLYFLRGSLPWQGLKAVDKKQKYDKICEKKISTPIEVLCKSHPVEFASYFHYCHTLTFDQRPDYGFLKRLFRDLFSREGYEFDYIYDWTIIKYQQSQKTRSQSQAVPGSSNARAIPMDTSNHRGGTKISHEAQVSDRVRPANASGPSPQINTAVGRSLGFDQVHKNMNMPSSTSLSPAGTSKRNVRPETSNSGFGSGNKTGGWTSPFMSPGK

Take `C#CCn1c2c(c(Br)c1-c1ccncc1)C(=O)NCC2.Cl` [AMI‐331]: the “Spectra (PSMs) AMI‐329 beads bound” value at CKL6 (AT4G28540) (competitor AMI‐331 5 µM) was 1 PSMs; on CKL6 (AT4G28540) (competitor AMI‐331 50 µM), 0 PSMs; on Reductase C (AT2G41680) (competitor AMI‐331 5 µM), 0 PSMs; at Reductase C (AT2G41680) (competitor AMI‐331 50 µM), 0 PSMs; on CKL7 (AT5G44100) (competitor AMI‐331 5 µM), 1 PSMs; at CKL7 (AT5G44100) (competitor AMI‐331 50 µM), 0 PSMs. In addition, the “Spectra (PSMs) AMI‐329 beads bound” value at CKL4 (AT4G28860) (competitor AMI‐331 5 µM) turned out to be 1 PSMs; on CKL4 (AT4G28860) (competitor AMI‐331 50 µM) it was 0 PSMs; on CKL13 (AT1G04440) (competitor AMI‐331 5 µM) it was 0 PSMs; at CKL13 (AT1G04440) (competitor AMI‐331 50 µM) it was 0 PSMs; on Kinase AT4G34500 (competitor AMI‐331 5 µM), 0 PSMs; on Kinase AT4G34500 (competitor AMI‐331 50 µM) it was 0 PSMs. Further, the “Spectra (PSMs) AMI‐329 beads bound” value on CKL1 (AT4G26100) (competitor AMI‐331 5 µM) is given as 2 PSMs; on CKL1 (AT4G26100) (competitor AMI‐331 50 µM) it was 0 PSMs; on CKL12 (AT5G57015) (competitor AMI‐331 5 µM) it was 2 PSMs; at CKL12 (AT5G57015) (competitor AMI‐331 50 µM), 0 PSMs. Besides, the figures for the “Spectra on AMI‐329 beads relative to 0 µM sample” value with MPK family (5 µM AMI‐331 as competitor) and in the assay on MPK family (50 µM AMI‐331 as competitor) were 13%–85% and 0%–31%, respectively.
